According to ChEMBL document CHEMBL1158466, “Discovery of novel 2-aminobenzamide inhibitors of heat shock protein 90 as potent, selective and orally active antitumor agents” (J Med Chem, 2009):

Assays:
LNCaP = test: Antiproliferative activity against human LNCAP cells after 72 to 144 hrs by cyquant DNA dye method; assay type: functional, cell-based
[1] = AUC (infinity) in Swiss Webster mouse at 25 mg/kg, po; assay type: ADME, organism-based; set-up: time infinity, dose 25 mg/kg, route oral; settings: plasma
SK-MEL-5 = test: Antiproliferative activity against human SK-MEL-5 cells after 72 to 144 hrs by cyquant DNA dye method; assay type: functional, cell-based
Heat shock protein HSP90 [2] = target: T1, Heat shock protein HSP90 (Homo sapiens, UniProt P07900+P08238); settings: a-375
Description: Inhibition of Hsp90 in human A375 cells assessed as Hsp70 induction after 24 hrs by high content screening

HT-29 [3] = test: Antitumor activity against human HT-29 cells xenografted nu/nu mouse assessed as median time for tumor to reach end point at 50 mg/kg, po administered 3 times a week for 3 weeks; assay type: functional
[4] = Tmax in Swiss Webster mouse at 10 mg/kg, po; assay type: ADME, organism-based; set-up: dose 10 mg/kg, route oral; settings: in vivo
MCF7 = test: Antiproliferative activity against human MCF7 cells after 72 to 144 hrs by cyquant DNA dye method; assay type: functional, cell-based
[5] = Tmax in Swiss Webster mouse at 25 mg/kg, po; assay type: ADME, organism-based; set-up: dose 25 mg/kg, route oral; settings: in vivo
Mus musculus [6] = test: Toxicity in nu/nu mouse assessed as effect on body weight at 5 to 50 mg/kg, po; assay type: organism-based; set-up: dose 5-50 mg/kg, route oral; settings: in vivo
[7] = Cmax in Swiss Webster mouse at 25 mg/kg, po; assay type: ADME, organism-based; set-up: dose 25 mg/kg, route oral; settings: in vivo
HT-29 [8] = test: Antiproliferative activity against human HT-29 cells after 72 to 144 hrs by cyquant DNA dye method; assay type: functional, cell-based
[9] = Apparent volume of distribution with respect to bioavailability in Swiss Webster mouse at 25 mg/kg, po; assay type: ADME, organism-based; settings: in vivo, read-out: Vc/F
Mus musculus [10] = test: Toxicity in nu/nu mouse assessed as mortality at 5 to 50 mg/kg, po; assay type: organism-based; set-up: dose 5-50 mg/kg, route oral; settings: in vivo
Heat shock protein HSP90 [11] = target: T1, Heat shock protein HSP90; assay type: cell-based; settings: au565
[12] = Clearance in Swiss Webster mouse at 10 mg/kg, iv; settings: in vivo
[13] = Apparent oral clearance in Swiss Webster mouse at 25 mg/kg, po; assay type: ADME, organism-based; set-up: dose 25 mg/kg, route oral; settings: in vivo
[14] = Half life in Swiss Webster mouse at 10 mg/kg, po; assay type: ADME, organism-based; set-up: dose 10 mg/kg, route oral; settings: in vivo
[15] = Apparent oral clearance in Swiss Webster mouse at 50 mg/kg, po; assay type: ADME, organism-based; set-up: dose 50 mg/kg, route oral; settings: in vivo
[16] = Binding affinity to pig spleen Hsp90 ATPase pocket by Bradford assay; assay type: tissue-based, Sus scrofa
K562 = test: Antiproliferative activity against human K562 cells after 72 to 144 hrs by cyquant DNA dye method; assay type: functional, cell-based
[17] = Cmax in Swiss Webster mouse at 50 mg/kg, po; assay type: ADME, organism-based; set-up: dose 50 mg/kg, route oral; settings: in vivo
A-375 = test: Antiproliferative activity against human A375 cells after 72 to 144 hrs by cyquant DNA dye method; assay type: functional, cell-based
[18] = Half life in Swiss Webster mouse at 10 mg/kg, iv; assay type: ADME, organism-based; set-up: dose 10 mg/kg, route intravenous; settings: in vivo
[19] = Solubility at pH 4 to […]; assay type: physicochemical; settings: buffer
[20] = Apparent volume of distribution with respect to bioavailability in Swiss Webster mouse at 50 mg/kg, po; assay type: ADME, organism-based; settings: in vivo, read-out: Vc/F
[21] = AUC (infinity) in Swiss Webster mouse at 10 mg/kg, po; assay type: ADME, organism-based; set-up: time infinity, dose 10 mg/kg, route oral; settings: plasma
[22] = Tmax in Swiss Webster mouse at 10 mg/kg, iv; assay type: ADME, organism-based; set-up: dose 10 mg/kg, route intravenous; settings: in vivo
HCT-15 = test: Antiproliferative activity against human HCT15 cells after 72 to 144 hrs by cyquant DNA dye method; assay type: functional, cell-based
[23] = Cmax in Swiss Webster mouse at 10 mg/kg, po; assay type: ADME, organism-based; set-up: dose 10 mg/kg, route oral; settings: in vivo
Heat shock protein HSP90 [24] = target: T1, Heat shock protein HSP90; settings: au565
Description: Inhibition of Hsp90 in human AU565 cells assessed as pERK degradation after 24 hrs by high content screening

Heat shock protein HSP90 [25] = target: T1, Heat shock protein HSP90; settings: a-375; remark: listed apart in the source
Description: Inhibition of Hsp90 in human A375 cells assessed as pS6 degradation after 24 hrs by high content screening

HT-29 [26] = test: Antitumor activity against human HT-29 cells xenografted nu/nu mouse assessed as tumor growth delay at 50 mg/kg, po administered 3 times a week for 3 weeks; assay type: functional
HT-29 [27] = test: Antitumor activity against human HT-29 cells xenografted nu/nu mouse assessed as tumor growth delay at 25 mg/kg, po administered 3 times a week for 3 weeks; assay type: functional
[28] = Tmax in Swiss Webster mouse at 50 mg/kg, po; assay type: ADME, organism-based; set-up: dose 50 mg/kg, route oral; settings: in vivo
PC-3 = test: Antiproliferative activity against human PC3 cells after 72 to 144 hrs by cyquant DNA dye method; assay type: functional, cell-based
MDA-MB-231 = test: Antiproliferative activity against human MDA-MB-231 cells after 72 to 144 hrs by cyquant DNA dye method; assay type: functional, cell-based
[29] = AUC (infinity) in Swiss Webster mouse at 50 mg/kg, po; assay type: ADME, organism-based; set-up: time infinity, dose 50 mg/kg, route oral; settings: plasma
[30] = Half life in Swiss Webster mouse at 50 mg/kg, po; assay type: ADME, organism-based; set-up: dose 50 mg/kg, route oral; settings: in vivo
[31] = Apparent volume of distribution with respect to bioavailability in Swiss Webster mouse at 10 mg/kg, po; assay type: ADME, organism-based; settings: in vivo, read-out: Vc/F
NCI-H460 = test: Antiproliferative activity against human NCI-H460 cells after 72 to 144 hrs by cyquant DNA dye method; assay type: functional, cell-based
[32] = AUC (infinity) in Swiss Webster mouse at 10 mg/kg, iv; assay type: ADME, organism-based; set-up: time infinity, dose 10 mg/kg, route intravenous; settings: plasma
[33] = Half life in Swiss Webster mouse at 25 mg/kg, po; assay type: ADME, organism-based; set-up: dose 25 mg/kg, route oral; settings: in vivo
[34] = Apparent oral clearance in Swiss Webster mouse at 10 mg/kg, po; assay type: ADME, organism-based; set-up: dose 10 mg/kg, route oral; settings: in vivo
Mus musculus [35] = test: Apparent volume of distribution with respect to bioavailability in Swiss Webster mouse at 10 mg/kg, iv; assay type: ADME, organism-based; settings: in vivo
SW-620 = test: Antiproliferative activity against human SW620 cells after 72 to 144 hrs by cyquant DNA dye method; assay type: functional, cell-based
[36] = Cmax in Swiss Webster mouse at 10 mg/kg, iv; assay type: ADME, organism-based; set-up: dose 10 mg/kg, route intravenous; settings: in vivo

Compound: CC1(C)CC(=O)c2c(C(F)(F)F)nn(-c3ccc(C(N)=O)c(N[C@H]4CC[C@H](OC(=O)CN)CC4)c3)c2C1.CS(=O)(=O)O
- IC50 (LNCaP): 31 nM
- AUC(0-inf) [1]: 11000 ng·h/mL
- IC50 (SK-MEL-5): 25 nM
- IC50 (Heat shock protein HSP90 [2]): 13 nM
- Activity (HT-29 [3]): 43.2 days
- Tmax [4]: 1 h
- IC50 (MCF7): 16 nM
- Tmax [5]: 1 h
- Activity (Mus musculus [6]): Non-toxic
- Cmax [7]: 2150 ng/mL
- IC50 (HT-29 [8]): 32 nM
- Vd/F [9]: 9.59 L/kg
- Activity (Mus musculus [10]): Non-toxic
- IC50 (Heat shock protein HSP90 [11]): 5 nM
- clearance [12]: 34.2 mL/min/kg
- CL/F [13]: 37.9 mL/min/kg
- half-life [14]: 2.5 h
- CL/F [15]: 33.1 mL/min/kg
- Kd [16]: 41 nM
- IC50 (K562): 23 nM
- Cmax [17]: 4020 ng/mL
- IC50 (A-375): 51 nM
- half-life [18]: 2.6 h
- solubility [19]: 1000 µg/mL
- Vd/F [20]: 9.55 L/kg
- AUC(0-inf) [21]: 3970 ng·h/mL
- Tmax [22]: 4.98 min
- IC50 (HCT-15): 190 nM
- Cmax [23]: 747 ng/mL
- IC50 (Heat shock protein HSP90 [24]): 11 nM
- IC50 (Heat shock protein HSP90 [25]): 61 nM
- Activity (HT-29 [26]): 67%
- Activity (HT-29 [27]): 14%
- Tmax [28]: 2 h
- IC50 (PC-3): 114 nM
- IC50 (MDA-MB-231): 38 nM
- AUC(0-inf) [29]: 25200 ng·h/mL
- half-life [30]: 3.3 h
- Vd/F [31]: 8.93 L/kg
- IC50 (NCI-H460): 215 nM
- AUC(0-inf) [32]: 4870 ng·h/mL
- half-life [33]: 2.9 h
- CL/F [34]: 42 mL/min/kg
- Vc/F (Mus musculus [35]): 7.846 L/kg
- IC50 (SW-620): 19 nM
- Cmax [36]: 4460 ng/mL
